Measured values published in US9095564B2, “von Willebrand factor or factor VIII and von Willebrand factor for the treatment of coagulopathy induced by inhibitors of thrombocytes” (CSL Behring GmbH, priority 2008, dated 2015).

Assays:
[1] = test system: clopidogrel treated rats; assay: Tail tip bleeding (total blood loss) in the rat clopidogrel model; format: in vivo
Procedure: The study was designed as an open seven-armed trial with 115 rats (+60 platelet donors).
3.2 mL blood were mixed with 0.8 mL trisodium citrate. Blood samples were pooled and centrifuged at 900 RPM for 30 minutes. Platelet-rich-plasma was collected into a fresh tube and centrifugated at 1800-2000 RPM for 15-17 minutes. The pellet was gently resuspended in Tyrode HEPES+0.3% BSA. Depending on platelet yield animals received 1.6−3×10^9 washed platelets intravenous into the tail vein.
Tablets were dissolved in isotonic saline and administered by gavage. On day 2 freshly prepared rat platelets were transfused into the tail vein by a bolus. Haemate® P was administered directly prior to platelet transfusion. 15 minutes after administration of platelets, blood loss was determined. The volume of total blood loss was calculated by measuring the HGB present in the saline used for submersion of the tail tip. The tail tip cut was performed with a scalpel knife under deep anesthesia, removing about 3 mm of the tail tip. Immediately upon lesion, the tail tip was submerged in saline, kept at the physiological body temperature of the rats using a water bath. The observation period to monitor bleeding was 30 min.
Blood loss was determined as the total blood loss (t=0-30 min) and analyzed by two-sided exact Wilcoxon test, box plot and Kaplan-Meier plot.

[2] = test system: thrombin generation in platelet rich plasma; assay: Thrombin generation/thrombogram in platelet rich plasma, rat clopidogrel model; format: in vivo; details: clopidogrel treatment, or single agent given to clopidogrel treated rats
Procedure: When Haemate® P was administered to clopigogrel treated rats an earlier onset of thrombin formation was observed but no increase of peak thrombin.

[3] = Group 1: Plavix/Isotonic saline, t=0-30 min

COC(=O)[C@H](c1ccccc1Cl)N1CCc2sccc2C1 [Plavix, clopidogrel]
Total blood loss, Maximum [1, 3]: 2345 µL | Total blood loss, Mean [1, 3]: 1404.2 µL | Total blood loss, Median [1, 3]: 1466 µL | Total blood loss, Minimum [1, 3]: 265 µL | total blood loss (result in words) ([1]; oral treatment with clopidogrel 2.5 mg/kg day 0 and day 1): increased total blood loss | onset of thrombin formation [2]: later onset | peak thrombin [2]: decrease in peak thrombin
